Assays:
[1] = target: T1, 17-beta-hydroxysteroid dehydrogenase type 1 (Homo sapiens, UniProt P14061); experiment: Inhibition of human placental 17beta-HSD1
T1 sequence (P14061 whole entry): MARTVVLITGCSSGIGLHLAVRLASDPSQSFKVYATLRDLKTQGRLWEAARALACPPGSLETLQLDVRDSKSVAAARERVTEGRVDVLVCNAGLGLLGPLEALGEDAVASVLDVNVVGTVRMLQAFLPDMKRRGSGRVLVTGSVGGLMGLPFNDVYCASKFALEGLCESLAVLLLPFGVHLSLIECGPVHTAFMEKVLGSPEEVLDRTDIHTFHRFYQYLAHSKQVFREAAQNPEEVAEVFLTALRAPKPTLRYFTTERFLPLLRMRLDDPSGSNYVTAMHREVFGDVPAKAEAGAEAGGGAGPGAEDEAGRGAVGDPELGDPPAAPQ

Homo sapiens = species: Homo sapiens; experiment: Selectivity ratio for human placental 17beta-HSD1 over human placental 17beta-HSD2
[2] = target: T2, 17-beta-hydroxysteroid dehydrogenase type 2 (Homo sapiens, UniProt P37059); experiment: Inhibition of human placental 17beta-HSD2
T2 sequence (P37059 whole entry): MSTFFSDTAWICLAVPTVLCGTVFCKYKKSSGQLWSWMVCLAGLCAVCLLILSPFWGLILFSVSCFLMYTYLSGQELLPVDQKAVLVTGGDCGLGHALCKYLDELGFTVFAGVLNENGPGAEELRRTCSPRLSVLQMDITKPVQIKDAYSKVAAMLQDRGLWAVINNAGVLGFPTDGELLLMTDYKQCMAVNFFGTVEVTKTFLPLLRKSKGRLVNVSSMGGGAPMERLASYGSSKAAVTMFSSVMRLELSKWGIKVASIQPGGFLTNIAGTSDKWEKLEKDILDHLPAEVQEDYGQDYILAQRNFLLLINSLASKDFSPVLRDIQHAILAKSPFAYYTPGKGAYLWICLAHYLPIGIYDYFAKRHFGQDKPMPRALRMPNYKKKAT

[3] = target: T3, Estrogen receptor (Homo sapiens) (UniProt P03372); experiment: Displacement of [3H]estradiol from human recombinant ERalpha relative to estradiol
T3 sequence (whole entry): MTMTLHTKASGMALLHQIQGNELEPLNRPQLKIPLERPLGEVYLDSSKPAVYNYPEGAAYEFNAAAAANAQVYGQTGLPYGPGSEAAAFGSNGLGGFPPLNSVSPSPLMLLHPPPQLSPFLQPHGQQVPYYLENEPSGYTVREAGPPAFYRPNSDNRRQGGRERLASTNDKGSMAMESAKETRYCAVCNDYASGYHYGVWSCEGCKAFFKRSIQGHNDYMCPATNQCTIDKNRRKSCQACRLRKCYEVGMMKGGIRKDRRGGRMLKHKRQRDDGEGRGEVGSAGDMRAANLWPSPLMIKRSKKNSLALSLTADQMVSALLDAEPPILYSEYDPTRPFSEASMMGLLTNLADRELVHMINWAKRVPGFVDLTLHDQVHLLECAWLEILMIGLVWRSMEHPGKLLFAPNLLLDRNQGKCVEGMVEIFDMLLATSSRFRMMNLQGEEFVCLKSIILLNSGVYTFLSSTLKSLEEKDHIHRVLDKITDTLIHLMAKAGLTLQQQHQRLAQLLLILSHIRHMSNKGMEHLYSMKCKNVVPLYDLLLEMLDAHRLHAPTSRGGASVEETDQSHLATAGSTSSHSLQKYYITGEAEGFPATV

[4] = target: Estrogen receptor beta (Homo sapiens) (UniProt Q92731); experiment: Displacement of [3H]estradiol from human recombinant ERbeta relative to estradiol
[5] = Apparent permeability across human Caco-2 cell membrane; type: ADME, cell-based
[6] = target: T4, 17-beta-hydroxysteroid dehydrogenase type 1 (Homo sapiens) (UniProt P14061); experiment: Inhibition of human recombinant 17beta-HSD1 expressed in Sf9 insect cells at 100 nM
T4 sequence (whole entry): T1 sequence (P14061 whole entry)

[7] = target: T4, 17-beta-hydroxysteroid dehydrogenase type 1 (Homo sapiens); experiment: Inhibition of human recombinant 17beta-HSD1 expressed in Sf9 insect cells at 1 uM

Chain of Estrogen receptor beta (Homo sapiens) (Q92731 whole entry): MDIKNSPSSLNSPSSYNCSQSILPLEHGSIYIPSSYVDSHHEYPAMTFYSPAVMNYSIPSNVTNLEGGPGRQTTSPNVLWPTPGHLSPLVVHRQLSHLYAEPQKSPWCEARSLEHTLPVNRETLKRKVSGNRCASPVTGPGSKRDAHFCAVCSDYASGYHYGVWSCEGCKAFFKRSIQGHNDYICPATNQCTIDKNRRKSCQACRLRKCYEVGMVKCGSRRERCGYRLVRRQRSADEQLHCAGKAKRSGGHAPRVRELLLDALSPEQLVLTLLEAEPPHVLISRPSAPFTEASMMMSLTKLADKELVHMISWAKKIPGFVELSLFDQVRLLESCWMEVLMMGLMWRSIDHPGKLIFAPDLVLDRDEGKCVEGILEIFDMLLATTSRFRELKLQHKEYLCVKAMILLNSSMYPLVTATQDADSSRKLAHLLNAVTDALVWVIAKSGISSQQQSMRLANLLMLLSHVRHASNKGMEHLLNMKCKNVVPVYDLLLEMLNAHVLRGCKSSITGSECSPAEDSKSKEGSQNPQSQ

`Oc1ccc(-c2ccc3c(O)cccc3c2)cc1` gave an IC50 [1] of 2420 nM, a Ratio IC50 (Homo sapiens) of 0.1 and an IC50 [2] of 0.302 µM. The RBA [3] was 5% and the RBA [4] was 5%.
Compound `Oc1cccc(-c2ccc3cc(O)ccc3c2)c1` has an IC50 [1] of 116 nM, an RBA [3] of 0.2% and an RBA [4] of 0.8%. It also gave a Papp [5] of 8.9 ×10⁻⁶ cm/s.
With `Oc1ccc2cc(-c3cccnc3)ccc2c1` the inhibition [6] was under 10% and the inhibition [7] was 32%.
In the case of `O=C1CCCc2cc(-c3cccc(O)c3)ccc21`, the inhibition [6] is reported as under 10% and the inhibition [7] is reported as 23%.
Compound `Oc1cccc(-c2ccc3ccccc3c2)c1` has an IC50 [1] of 2260 nM, a Ratio IC50 (Homo sapiens) of 1.8 and an inhibition [6] of 26%. The IC50 [2] was 4.01 µM, the RBA [3] was 0.01% and the RBA [4] was 0.01%. For the same compound, the inhibition [7] was 61%.
Compound `Oc1cccc(-c2ccc3c(O)cccc3c2)c1` has an inhibition [6] of under 10% and an inhibition [7] of 23%.
`Oc1cccc(-c2ccc3ccc(O)cc3c2)c1` gave an inhibition [6] of 16% and an inhibition [7] of 62%.
In the case of `C[C@]12CC[C@@H]3c4ccc(O)cc4CC[C@H]3[C@@H]1CC(CCCCCCCCC(=O)OC[C@H]1O[C@@H](n3cnc4c(N)ncnc43)[C@H](O)[C@@H]1O)[C@@H]2O` (stereo partly drawn), the IC50 [1] is reported as 52 nM.
`Oc1ccc2cc(-c3ccccc3O)ccc2c1` gave an inhibition [6] of under 10% and an inhibition [7] of under 10%.
With `Oc1cccc(-c2ccc3cc(O)ccc3n2)c1` the inhibition [6] was 14% and the inhibition [7] was 63%.
With `O=C(O)c1cccc(-c2ccc3cc(O)ccc3c2)c1` the inhibition [6] was 36% and the inhibition [7] was 76%.
`Oc1cccc(-c2cnc3cc(O)ccc3c2)c1` showed an inhibition [6] of 24% and an inhibition [7] of 57%.
With `Oc1ccc(-c2ccc3cc(O)ccc3c2)cc1` the inhibition [6] was under 10% and the inhibition [7] was under 10%.
Compound `O=C(O)c1ccc(-c2ccc3cc(O)ccc3c2)cc1` has an inhibition [6] of under 10% and an inhibition [7] of under 10%.
In the case of `Oc1ccc(-c2cnc3cc(O)ccc3c2)cc1`, the inhibition [6] is reported as under 10% and the inhibition [7] is reported as under 10%.
In the case of `Oc1ccc2cc(-c3ccccc3)ccc2c1`, the inhibition [6] is reported as under 10% and the inhibition [7] is reported as under 10%.
Work on `OCc1ccc(-c2ccc3cc(O)ccc3c2)cc1` yielded an inhibition [6] of under 10% and an inhibition [7] of 13%.
In the case of `Oc1ccc2cc(-c3cccs3)ccc2c1`, the inhibition [6] is reported as under 10% and the inhibition [7] is reported as under 10%.
Compound `CC(=O)Nc1cccc(-c2ccc3cc(O)ccc3c2)c1` has an inhibition [6] of under 10% and an inhibition [7] of 19%.
In the case of `Oc1cncc(-c2ccc3cc(O)ccc3c2)c1`, the IC50 [1] is reported as 1230 nM, the Ratio IC50 (Homo sapiens) is reported as over 8 and the inhibition [6] is reported as 30%. For the same compound, the IC50 [2] was over 10 µM, the RBA [3] was 0.01% and the RBA [4] was 1%. The inhibition [7] was 58%.
In the case of `Oc1ccc2cc(-c3ccsc3)ccc2c1`, the inhibition [6] is reported as under 10% and the inhibition [7] is reported as under 10%.
For `Nc1cccc(-c2ccc3cc(O)ccc3c2)c1`, the inhibition [6] was under 10% and the inhibition [7] was under 10%.
With `O=[N+]([O-])c1cccc(-c2ccc3cc(O)ccc3c2)c1` the inhibition [6] was under 10% and the inhibition [7] was under 10%.
For `Oc1cccc(-c2cnc3ccccc3c2)c1`, the inhibition [6] was under 10% and the inhibition [7] was 18%.
Compound `Oc1ccc(-c2cnc3ccccc3c2)cc1` has an inhibition [6] of under 10% and an inhibition [7] of under 10%.
With `Oc1cccc(-c2cc3cc(O)ccc3[nH]2)c1` the inhibition [6] was under 10% and the inhibition [7] was under 10%.
`OCc1cccc(-c2ccc3cc(O)ccc3c2)c1` gave an inhibition [6] of under 10% and an inhibition [7] of under 10%.
